Measurements taken from US9278914B2, “SARMs and method of use thereof” (UNIVERSITY OF TENNESSEE RESEARCH FOUNDATION, priority 2004, dated 2016).

What was measured:
[1] = tested on: castrated (ORX) male Sprague-Dawley rats; experiment: Anabolic and androgenic activity in castrated (ORX) male rats, daily oral gavage for fourteen days; format: in vivo, rat; details: for Emax levator ani / Emax prostate / Emax seminal vesicles: nonlinear regression, sigmoid Emax model; for Anabolic muscle/prostate ratio: castrated rats; for Levator ani muscle weight, maximally stimulated: maximal stimulation, comparator
Experimental: Male Sprague-Dawley rats weighing approximately 200 g were purchased from Harlan Bioproducts for Science (Indianapolis, Ind.).
The test article for this study was weighed and dissolved in 10% DMSO (Fisher) diluted with PEG 300 (Acros Organics, N.J.) for preparation of the appropriate dosage concentrations. […] Animals were randomly assigned to one of seven groups consisting of 4 to 5 animals per group. Control groups (intact and ORX) were administered vehicle daily. […] Where appropriate, animals were castrated on day one of the study.
(§1) In addition, ventral prostate, seminal vesicles, and levator ani muscle were removed, individually weighed, normalized to body weight, and expressed as a percentage of intact control. Student's T-test was used to compare individual dose groups to the intact control group. Significance was defined a priori as a P-value<0.05. Ventral prostate and seminal vesicle weights were evaluated as a measure of androgenic activity, whereas levator ani muscle weight was evaluated as a measure of anabolic activity. Blood was collected from the abdominal aorta, centrifuged, and sera were frozen at −80° C. prior to determination of serum hormone levels. Serum luteinizing hormone (LH) and follicle stimulating hormone (FSH) concentrations were determined.
(§2) The test article for this study was weighed and dissolved in 10% DMSO (Fisher) diluted with PEG 300 (Acros Organics, N.J.) for preparation of the appropriate dosage concentrations. […] Animals were randomly assigned to one of seven groups consisting of 4 to 5 animals per group. Control groups (intact and ORX) were administered vehicle daily. Compound of formula S-XXIII was administered via oral gavage at doses of 0.01, 0.03, 0.1, 0.3, 0.75, and 1 mg/day to both intact and ORX groups. Where appropriate, animals were castrated on day one of the study. Treatment with compound of formula S-XXIII began nine days post ORX and was administered daily via oral gavage for fourteen days.
Male Sprague-Dawley rats weighing approximately 200 g were purchased from Harlan Bioproducts for Science (Indianapolis, Ind.). […] Regenerative effects of the compound of formula S-XXIV in chronically (9 days) ORX rats was similarly evaluated.
as §2, with “S-XXIV” for “S-XXIII”
Male Sprague-Dawley rats weighing approximately 200 g were purchased from Harlan Bioproducts for Science (Indianapolis, Ind.). […] Anabolic and androgenic activity of compound of formula S-XXV in intact animals was evaluated, and the dose response in acutely orchidectomized (ORX) animals was evaluated as well.
The compound was weighed and dissolved in 10% DMSO (Fisher) diluted with PEG 300 (Acros Organics, N.J.) for preparation of the appropriate dosage concentrations.

[2] = tested on: intact male Sprague-Dawley rats; experiment: Anabolic and androgenic activity in intact male rats, daily oral gavage; format: in vivo, rat
Experimental: The test article for this study was weighed and dissolved in 10% DMSO (Fisher) diluted with PEG 300 (Acros Organics, N.J.) for preparation of the appropriate dosage concentrations. The animals were housed in groups of 2 to 3 animals per cage. Animals were randomly assigned to one of seven groups consisting of 4 to 5 animals per group. Control groups (intact and ORX) were administered vehicle daily. […] Where appropriate, animals were castrated on day one of the study. Treatment with compound of formula S-II began nine days post ORX and was administered daily via oral gavage for fourteen days.
as §1, with “The animals were sacrificed under anesthesia (ketamine/xyalzine, 87:13 mg/kg) and body weights were recorded. In” for “In”
(§3) The test article for this study was weighed and dissolved in 10% DMSO (Fisher) diluted with PEG 300 (Acros Organics, N.J.) for preparation of the appropriate dosage concentrations. The animals were housed in groups of 2 to 3 animals per cage. Animals were randomly assigned to one of seven groups consisting of 4 to 5 animals per group. Control groups (intact and ORX) were administered vehicle daily. Compound of formula S-XXIII was administered via oral gavage at doses of 0.01, 0.03, 0.1, 0.3, 0.75, and 1 mg/day to both intact and ORX groups. Where appropriate, animals were castrated on day one of the study. Treatment with compound of formula S-XXIII began nine days post ORX and was administered daily via oral gavage for fourteen days.
as §3, with “S-XXIV” for “S-XXIII”, “study.” for “study. Treatment with compound of formula S-XXIII began nine days post ORX and was administered daily via oral gavage for fourteen days.”

C[C@](O)(COc1ccc(C#N)c(F)c1)C(=O)Nc1ccc(C#N)c(C(F)(F)F)c1 [S-XXIII]
Dose able to fully restore/maintain levator ani muscle weight ([1]; ORX rats): 0.03 mg/day | ED50 levator ani ([1]; ORX rats): 0.03 ± 0.01 mg/day | ED50 prostate ([1]; ORX rats): 0.21 ± 0.04 mg/day | ED50 seminal vesicles ([1]; ORX rats): 0.2 ± 0.04 mg/day | Levator ani muscle weight ([1]; ORX rats, 0.01 mg/day oral): 71%±4% | Prostate weight ([1]; ORX rats, 0.01 mg/day oral): 24%±4% | Seminal vesicle weight ([1]; ORX rats, 0.01 mg/day oral): 15%±2% | Levator ani muscle weight ([1]; ORX rats, 0.03 mg/day oral): 101%±15% | Prostate weight ([1]; ORX rats, 0.03 mg/day oral): 37%±9% | Seminal vesicle weight ([1]; ORX rats, 0.03 mg/day oral): 25%±9% | Levator ani muscle weight ([1]; ORX rats, 0.1 mg/day oral): 125%±20% | Prostate weight ([1]; ORX rats, 0.1 mg/day oral): 50%±11% | Seminal vesicle weight ([1]; ORX rats, 0.1 mg/day oral): 67%±20% | Levator ani muscle weight ([1]; ORX rats, 0.3 mg/day oral): 126%±14% | Prostate weight ([1]; ORX rats, 0.3 mg/day oral): 88%±16% | Seminal vesicle weight ([1]; ORX rats, 0.3 mg/day oral): 113%±6% | Levator ani muscle weight ([1]; ORX rats, 0.75 mg/day oral): 151±9 % of intact controls | Prostate weight ([1]; ORX rats, 0.75 mg/day oral): 132%±16% | Seminal vesicle weight ([1]; ORX rats, 0.75 mg/day oral): 155%±16% | Levator ani muscle weight ([1]; ORX rats, 1 mg/day oral): 143±17 % of intact controls | Prostate weight ([1]; ORX rats, 1 mg/day oral): 118±12 % of intact controls | Seminal vesicle weight ([1]; ORX rats, 1 mg/day oral): 160%±7% | Emax levator ani ([1]; ORX rats): 147%±10% | Emax prostate ([1]; ORX rats): 147%±10% | Emax seminal vesicles ([1]; ORX rats): 188%±135% | Levator ani muscle weight ([2]; 0.01 mg/day oral): 116%±7% | Prostate weight ([2]; 0.01 mg/day oral): 98%±21% | Seminal vesicle weight ([2]; 0.01 mg/day oral): 115%±12% | Levator ani muscle weight ([2]; 0.03 mg/day oral): 134%±8% | Prostate weight ([2]; 0.03 mg/day oral): 99%±8% | Seminal vesicle weight ([2]; 0.03 mg/day oral): 109%±17% | Levator ani muscle weight ([2]; 0.1 mg/day oral): 134%±21% | Prostate weight ([2]; 0.1 mg/day oral): 85%±18% | Seminal vesicle weight ([2]; 0.1 mg/day oral): 106%±13% | Levator ani muscle weight ([2]; 0.3 mg/day oral): 134%±11% | Prostate weight ([2]; 0.3 mg/day oral): 98%±22% | Seminal vesicle weight ([2]; 0.3 mg/day oral): 121%±11% | Levator ani muscle weight ([2]; 0.75 mg/day oral): 142%±10% | Prostate weight ([2]; 0.75 mg/day oral): 126%±17% | Seminal vesicle weight ([2]; 0.75 mg/day oral): 157%±5% | Levator ani muscle weight ([2]; 1 mg/day oral): 147%±10% | Prostate weight ([2]; 1 mg/day oral): 126%±17% | Seminal vesicle weight ([2]; 1 mg/day oral): 136%±3%

C[C@](O)(COc1ccc(C#N)cc1)C(=O)Nc1ccc(C#N)c(Cl)c1 [S-XXIV, (S)—N-(3-chloro-4-cyanophenyl)-3-(4-cyanophenoxy)-2-hydroxy-2-methylpropanamide]
Dose restoring 100% of levator ani muscle weight ([1]; ORX rats): 0.1 mg/day | Prostate weight restored at the dose restoring 100% levator ani ([1]; ORX rats): 43±15% | Levator ani muscle weight ([1]; ORX rats, 0.01 mg/day oral): 52%±8% | Prostate weight ([1]; ORX rats, 0.01 mg/day oral): 17%±6% | Seminal vesicle weight ([1]; ORX rats, 0.01 mg/day oral): 10%±3% | Levator ani muscle weight ([1]; ORX rats, 0.03 mg/day oral): 67%±9% | Prostate weight ([1]; ORX rats, 0.03 mg/day oral): 31%±3% | Seminal vesicle weight ([1]; ORX rats, 0.03 mg/day oral): 13%±4% | Levator ani muscle weight ([1]; ORX rats, 0.1 mg/day oral): 98%±10% | Prostate weight ([1]; ORX rats, 0.1 mg/day oral): 43%±15% | Seminal vesicle weight ([1]; ORX rats, 0.1 mg/day oral): 21%±6% | Levator ani muscle weight ([1]; ORX rats, 0.3 mg/day oral): 103%±12% | Prostate weight ([1]; ORX rats, 0.3 mg/day oral): 54%±17% | Seminal vesicle weight ([1]; ORX rats, 0.3 mg/day oral): 43%±8% | Levator ani muscle weight ([1]; ORX rats, 0.75 mg/day oral): 105%±12% | Prostate weight ([1]; ORX rats, 0.75 mg/day oral): 58%±10% | Seminal vesicle weight ([1]; ORX rats, 0.75 mg/day oral): 51%±9% | Seminal vesicle weight ([1]; ORX rats, 1 mg/day oral): 69%±14% | Anabolic muscle/prostate ratio ([1]; 0.01 mg/day): 3.02 | Anabolic muscle/prostate ratio ([1]; 0.03 mg/day): 2.13 | Anabolic muscle/prostate ratio ([1]; 0.1 mg/day): 2.27 | Anabolic muscle/prostate ratio ([1]; 0.3 mg/day): 1.90 | Anabolic muscle/prostate ratio ([1]; 0.75 mg/day): 1.83 | Anabolic muscle/prostate ratio ([1]; 1 mg/day): 1.51 | Levator ani muscle weight ([2]; 0.01 mg/day oral): 107%±5% | Prostate weight ([2]; 0.01 mg/day oral): 103%±10% | Levator ani muscle weight ([2]; 0.03 mg/day oral): 103%±7% | Prostate weight ([2]; 0.03 mg/day oral): 99%±10% | Levator ani muscle weight ([2]; 0.1 mg/day oral): 97%±7% | Prostate weight ([2]; 0.1 mg/day oral): 58%±10% | Levator ani muscle weight ([2]; 0.3 mg/day oral): 103%±5% | Prostate weight ([2]; 0.3 mg/day oral): 58%±15% | Levator ani muscle weight ([2]; 0.75 mg/day oral): 118%±7% | Prostate weight ([2]; 0.75 mg/day oral): 65%±20% | Levator ani muscle weight ([2]; 1 mg/day oral): 118%±7% | Prostate weight ([2]; 1 mg/day oral): 77%±23%

C[C@](O)(COc1ccc(C#N)cc1)C(=O)Nc1ccc(C#N)c(C(F)(F)F)c1 [S-XXV]
Dose able to fully restore/maintain levator ani muscle weight ([1]; ORX rats): > 0.1 mg/day | ED50 levator ani ([1]; ORX rats): 0.02 ± 0.01 mg/day | ED50 prostate ([1]; ORX rats): 0.09 ± 0.07 mg/day | ED50 seminal vesicles ([1]; ORX rats): 0.17 ± 0.05 mg/day | Levator ani muscle weight ([1]; ORX rats, 0.01 mg/day oral): 59%±6% | Prostate weight ([1]; ORX rats, 0.01 mg/day oral): 8%±2% | Seminal vesicle weight ([1]; ORX rats, 0.01 mg/day oral): 12%±4% | Levator ani muscle weight ([1]; ORX rats, 0.03 mg/day oral): 85%±9% | Prostate weight ([1]; ORX rats, 0.03 mg/day oral): 20%±5% | Seminal vesicle weight ([1]; ORX rats, 0.03 mg/day oral): 17%±5% | Levator ani muscle weight ([1]; ORX rats, 0.1 mg/day oral): 112%±10% | Prostate weight ([1]; ORX rats, 0.1 mg/day oral): 51%±19% | Seminal vesicle weight ([1]; ORX rats, 0.1 mg/day oral): 35%±10% | Levator ani muscle weight ([1]; ORX rats, 0.3 mg/day oral): 122%±16% | Prostate weight ([1]; ORX rats, 0.3 mg/day oral): 56%±9% | Seminal vesicle weight ([1]; ORX rats, 0.3 mg/day oral): 61%±15% | Levator ani muscle weight ([1]; ORX rats, 0.75 mg/day oral): 127±12 % of intact controls | Prostate weight ([1]; ORX rats, 0.75 mg/day oral): 80%±28% | Seminal vesicle weight ([1]; ORX rats, 0.75 mg/day oral): 70%±14% | Levator ani muscle weight ([1]; ORX rats, 1 mg/day oral): 129.66±2 % of intact controls | Prostate weight ([1]; ORX rats, 1 mg/day oral): 74±12.5 % of intact controls | Seminal vesicle weight ([1]; ORX rats, 1 mg/day oral): 80%±6% | Emax levator ani ([1]; ORX rats): 131%±2% | Emax prostate ([1]; ORX rats): 83%±25% | Emax seminal vesicles ([1]; ORX rats): 85%±11% | Levator ani muscle weight ([2]; 0.01 mg/day oral): 120%±12% | Prostate weight ([2]; 0.01 mg/day oral): 111%±21% | Seminal vesicle weight ([2]; 0.01 mg/day oral): 94%±9% | Levator ani muscle weight ([2]; 0.03 mg/day oral): 116%±7% | Prostate weight ([2]; 0.03 mg/day oral): 88%±15% | Seminal vesicle weight ([2]; 0.03 mg/day oral): 77%±11% | Levator ani muscle weight ([2]; 0.1 mg/day oral): 128%±7% | Prostate weight ([2]; 0.1 mg/day oral): 77%±17% | Seminal vesicle weight ([2]; 0.1 mg/day oral): 80%±9% | Levator ani muscle weight ([2]; 0.3 mg/day oral): 134%±7% | Prostate weight ([2]; 0.3 mg/day oral): 71%±16% | Seminal vesicle weight ([2]; 0.3 mg/day oral): 73%±12% | Levator ani muscle weight ([2]; 0.75 mg/day oral): 125%±9% | Prostate weight ([2]; 0.75 mg/day oral): 71%±10% | Seminal vesicle weight ([2]; 0.75 mg/day oral): 77%±10% | Levator ani muscle weight ([2]; 1 mg/day oral): 146%±17% | Prostate weight ([2]; 1 mg/day oral): 87%±13% | Seminal vesicle weight ([2]; 1 mg/day oral): 88%±14%

CCC(=O)O[C@H]1CC[C@H]2[C@@H]3CCC4=CC(=O)CC[C@]4(C)[C@H]3CC[C@]12C [Testosterone propionate, reference compound]
Levator ani muscle weight, maximally stimulated [1]: 104%

CC(=O)Nc1ccc(OC[C@](C)(O)C(=O)Nc2ccc([N+](=O)[O-])c(C(F)(F)F)c2)cc1 [S-4, S-3-(4-acetylaminophenoxy)-2-hydroxy-2-methyl-N-(4-nitro-3-trifluoromethylphenyl) propionamide, reference compound]
Levator ani muscle weight, maximally stimulated [1]: 101%
